Calls of active or inactive are those of the source. The rule behind the calls is not given here.

In this series the test system is CCRIS mutagenicity, Ames/micronucleus/aberration tests. The experiment in a line: CCRIS mutagenicity studies.
The mark [1] stands for this setting: Test System: AMES SALMONELLA TYPHIMURIUM, Strain/Indicator: TA98, Metabolic Activation: NONE, Method: STANDARD PLATE.
Where [2] appears, read: Test System: AMES SALMONELLA TYPHIMURIUM, Strain/Indicator: TA100, Metabolic Activation: NONE, Method: STANDARD PLATE.

Consider `Nc1ccc(-c2cc([N+](=O)[O-])c(N)c(Cl)c2Cl)cc1`, for which the mutagenic call runs as follows: (Test System: Ames Salmonella typhimurium, Strain/Indicator: TA98, Metabolic Activation: None, Method: Preincubation) “active; positive. weak response”; (Test System: Ames Salmonella typhimurium, Strain/Indicator: TA98, Metabolic Activation: Rat, Liver, S-9, Phenobarbital and 5,6-benzoflavone, Method: Preincubation) “active; positive”; (Test System: Ames Salmonella typhimurium, Strain/Indicator: TA100, Metabolic Activation: None, Method: Preincubation) “inactive; negative”; (Test System: Ames Salmonella typhimurium, Strain/Indicator: TA100, Metabolic Activation: Rat, Liver, S-9, Phenobarbital and 5,6-benzoflavone, Method: Preincubation) “active; positive”; (Test System: Ames Salmonella typhimurium, Strain/Indicator: YG1024, Metabolic Activation: None, Method: Preincubation) “active; positive”; (Test System: Ames Salmonella typhimurium, Strain/Indicator: YG1024, Metabolic Activation: Rat, Liver, S-9, Phenobarbital and 5,6-benzoflavone, Method: Preincubation) “active; positive”. Moreover, the mutagenic call reads like this: (Test System: Ames Salmonella typhimurium, Strain/Indicator: YG1029, Metabolic Activation: None, Method: Preincubation) “inactive; negative”; (Test System: Ames Salmonella typhimurium, Strain/Indicator: YG1029, Metabolic Activation: Rat, Liver, S-9, Phenobarbital and 5,6-benzoflavone, Method: Preincubation) “active; positive”.

Consider `Oc1c(Cl)cc(Cl)c(Cl)c1O`, for which the mutagenic call is “active; positive” (Test System: CHINESE HAMSTER V-79, Strain/Indicator: V-79/6-THIOGUANINE, Metabolic Activation: NONE, Method: STANDARD PLATE) and “inactive; negative” (Test System: CHINESE HAMSTER V-79, Strain/Indicator: V-79/6-THIOGUANINE, Metabolic Activation: PRIMARY RAT HEPATOCYTES, Method: STANDARD PLATE).

Consider `O=S(=O)(Oc1ccc(Cl)c(Cl)c1)c1cccc2cccnc12`, for which the mutagenic call is, setting by setting: under setting [1], “inactive; negative”; (Test System: AMES SALMONELLA TYPHIMURIUM, Strain/Indicator: TA98, Metabolic Activation: RAT, LIVER, S-9, AROCLOR 1254, Method: STANDARD PLATE) “active; positive”; under setting [2], “inactive; negative”; (Test System: AMES SALMONELLA TYPHIMURIUM, Strain/Indicator: TA100, Metabolic Activation: RAT, LIVER, S-9, AROCLOR 1254, Method: STANDARD PLATE) “active; positive”; (Test System: AMES SALMONELLA TYPHIMURIUM, Strain/Indicator: TA1535, Metabolic Activation: NONE, Method: STANDARD PLATE) “inactive; negative”; (Test System: AMES SALMONELLA TYPHIMURIUM, Strain/Indicator: TA1535, Metabolic Activation: RAT, LIVER, S-9, AROCLOR 1254, Method: STANDARD PLATE) “inactive; negative”. Moreover, the mutagenic call is, setting by setting: (Test System: AMES SALMONELLA TYPHIMURIUM, Strain/Indicator: TA1537, Metabolic Activation: NONE, Method: STANDARD PLATE) “inactive; negative”; (Test System: AMES SALMONELLA TYPHIMURIUM, Strain/Indicator: TA1537, Metabolic Activation: RAT, LIVER, S-9, AROCLOR 1254, Method: STANDARD PLATE) “inactive; negative”.

As for `O=C(Nc1ccccc1)c1csc([N+](=O)[O-])c1`, the mutagenic call was “active; positive” (Test System: AMES SALMONELLA TYPHIMURIUM, Strain/Indicator: TA98(1,8-DNP6), Metabolic Activation: NONE, Method: STANDARD PLATE); “inactive; negative” (Test System: AMES SALMONELLA TYPHIMURIUM, Strain/Indicator: TA98(NR), Metabolic Activation: NONE, Method: STANDARD PLATE); “active; positive” under setting [1]; “active; positive” under setting [2]; “active; positive” (Test System: AMES SALMONELLA TYPHIMURIUM, Strain/Indicator: YG1021, Metabolic Activation: NONE, Method: STANDARD PLATE); “active; positive” (Test System: AMES SALMONELLA TYPHIMURIUM, Strain/Indicator: YG1024, Metabolic Activation: NONE, Method: STANDARD PLATE).

Turning to `O=P(OCCCl)(OCCCl)OCCCl`, the mutagenic call runs as follows: (End Point: IN VITRO CHROMOSOMAL ABERRATIONS, Test System: CHINESE HAMSTER OVARY CELLS, Metabolic Activation: NONE) “inactive; negative”; (End Point: IN VITRO CHROMOSOMAL ABERRATIONS, Test System: CHINESE HAMSTER OVARY CELLS, Metabolic Activation: RAT, LIVER, S-9, AROCLOR 1254) “inactive; negative”; (Test System: AMES SALMONELLA TYPHIMURIUM, Strain/Indicator: TA98, Metabolic Activation: HAMSTER, LIVER, S-9, AROCLOR 1254 (10%), Method: PREINCUBATION) “inactive; negative”; (Test System: AMES SALMONELLA TYPHIMURIUM, Strain/Indicator: TA98, Metabolic Activation: NONE, Method: PREINCUBATION) “inactive; negative”; (Test System: AMES SALMONELLA TYPHIMURIUM, Strain/Indicator: TA98, Metabolic Activation: RAT, LIVER, S-9, AROCLOR 1254 (10%), Method: PREINCUBATION) “inactive; negative”; (Test System: AMES SALMONELLA TYPHIMURIUM, Strain/Indicator: TA100, Metabolic Activation: HAMSTER, LIVER, S-9, AROCLOR 1254 (10%), Method: PREINCUBATION) “inactive; negative”. For the same compound, the mutagenic call was “inactive; negative” (Test System: AMES SALMONELLA TYPHIMURIUM, Strain/Indicator: TA100, Metabolic Activation: NONE, Method: PREINCUBATION); “inactive; negative” (Test System: AMES SALMONELLA TYPHIMURIUM, Strain/Indicator: TA100, Metabolic Activation: RAT, LIVER, S-9, AROCLOR 1254 (10%), Method: PREINCUBATION); “active; positive” (Test System: AMES SALMONELLA TYPHIMURIUM, Strain/Indicator: TA100, Metabolic Activation: RAT, LIVER, S-9, PCB, Method: STANDARD PLATE); “inactive; negative” (Test System: AMES SALMONELLA TYPHIMURIUM, Strain/Indicator: TA1535, Metabolic Activation: HAMSTER, LIVER, S-9, AROCLOR 1254 (10%), Method: PREINCUBATION); “inactive; negative” (Test System: AMES SALMONELLA TYPHIMURIUM, Strain/Indicator: TA1535, Metabolic Activation: NONE, Method: PREINCUBATION); “inactive; negative” (Test System: AMES SALMONELLA TYPHIMURIUM, Strain/Indicator: TA1535, Metabolic Activation: RAT, LIVER, S-9, AROCLOR 1254 (10%), Method: PREINCUBATION). Moreover, the mutagenic call is, setting by setting: (Test System: AMES SALMONELLA TYPHIMURIUM, Strain/Indicator: TA1535, Metabolic Activation: RAT, LIVER, S-9, PCB, Method: STANDARD PLATE) “active; positive”; (Test System: AMES SALMONELLA TYPHIMURIUM, Strain/Indicator: TA1537, Metabolic Activation: HAMSTER, LIVER, S-9, AROCLOR 1254 (10%), Method: PREINCUBATION) “inactive; negative”; (Test System: AMES SALMONELLA TYPHIMURIUM, Strain/Indicator: TA1537, Metabolic Activation: NONE, Method: PREINCUBATION) “inactive; negative”; (Test System: AMES SALMONELLA TYPHIMURIUM, Strain/Indicator: TA1537, Metabolic Activation: RAT, LIVER, S-9, AROCLOR 1254 (10%), Method: PREINCUBATION) “inactive; negative”.

For the origin of these results see PubChem BioAssay AID1259407 (Chemical Carcinogenesis Research Information System (CCRIS), 2018).
